Patent publication US10167262B2, “Herbicidal substituted 3-arylpyrazoles” (FMC CORPORATION, priority 2014, dated 2019)

How the values were obtained:
Type in all cases: in vivo
[1] = system: johnsongrass (Sorghum halepense); assay: Test E pre-/postemergence greenhouse test, plant response rating 0-100; details: Preemergence, scale 0 to 100
[2] = system: large (Lg) crabgrass (Digitaria sanguinalis); assay: as above; details: Preemergence, scale 0 to 100
[3] = system: sedge, umbrella (small-flower umbrella sedge, Cyperus difformis); assay: Test B flooded paddy test, plant response rating 0-100; details: Flood, 250 g ai/ha; scale 0 to 100 (0 no effect, 100 complete control); 13 to 15 days
Outline: (§1)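 Ratings were visual and made relative to untreated controls after 13 to 15 greenhouse days.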

[4] = system: ducksalad (Heteranthera limosa); assay: as above; details: Flood, 250 g ai/ha; scale 0 to 100 (0 no effect, 100 complete control); 13 to 15 days
Outline: as §1

rice (Oryza sativa) = assay: as above; details: Flood, 250 g ai/ha; scale 0 to 100 (0 no effect, 100 complete control); 13 to 15 days
Outline: as §1

[5] = system: barnyardgrass (Echinochloa crus-galli); assay: as above; details: Flood, 250 g ai/ha; scale 0 to 100 (0 no effect, 100 complete control); 13 to 15 days
Outline: as §1

kochia (Kochia scoparia) = assay: Test E pre-/postemergence greenhouse test, plant response rating 0-100; details: Preemergence, scale 0 to 100
Outline: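 Greenhouse pot assay, two application timings. Pre- to silt loam at planting; post- to 1–4-leaf plants. Visual 0–100 score at 14–21 d.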

[6] = system: yellow nutsedge (Cyperus esculentus); assay: as above; details: Preemergence, scale 0 to 100
[7] = system: winter barley (Hordeum vulgare); assay: Test C postemergence greenhouse test, plant response rating 0-100
Outline: (§2)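 Visual rating vs. controls, 0 (no effect) to 100 (complete control), 13–15 d after postemergence treatment. Potted plants, 1- to 4-leaf stage (2–18 cm), greenhouse-held.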

[8] = system: windgrass (Apera spica-venti); assay: as above
Outline: as §2

[9] = system: bermudagrass (Cynodon dactylon); assay: as above
Outline: as §2

[10] = system: downy bromegrass (Bromus tectorum); assay: as above
Outline: as §2

[11] = system: surinam grass (Brachiaria decumbens); assay: as above
Outline: as §2

[12] = system: green foxtail (Setaria viridis); assay: as above
Outline: as §2

[13] = system: waterhemp_RES1, (ALS & Triazine resistant common waterhemp, Amaranthus rudis); assay: Test E postemergence greenhouse test, plant response rating 0-100; details: scale 0 to 100
Outline: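 Resistant waterhemp biotypes grown in peat/vermiculite medium and treated postemergence at 2–18 cm height (1- to 4-leaf stage). Kept in greenhouse 14 to 21 days, then visually rated against untreated controls on a 0–100 scale (0 no effect, 100 complete control).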

Compound: COCC(=O)n1cc(C(=O)c2ccccc2)c(-c2cc(Cl)cc(Cl)c2)n1 [Compound 16, 1-[4-benzoyl-3-(3,5-dichlorophenyl)-1H-pyrazol-1-yl]-2-methoxyethanone]
- Johnsongrass plant response rating ([1]; 31 g ai/ha): 0
- Johnsongrass plant response rating ([1]; 62 g ai/ha): 0
- Johnsongrass plant response rating ([1]; 125 g ai/ha): 0
- Johnsongrass plant response rating ([1]; 250 g ai/ha): 0
- Johnsongrass plant response rating ([1]; 500 g ai/ha): 30
- Crabgrass, Large plant response rating ([2]; 31 g ai/ha): 0
- Crabgrass, Large plant response rating ([2]; 62 g ai/ha): 0
- Crabgrass, Large plant response rating ([2]; 125 g ai/ha): 0
- Crabgrass, Large plant response rating ([2]; 250 g ai/ha): 0
- Crabgrass, Large plant response rating ([2]; 500 g ai/ha): 0
- Plant response rating, Sedge, Umbrella [3]: 0
- Plant response rating, Ducksalad [4]: 0
- Plant response rating, Rice (rice (Oryza sativa)): 0
- Plant response rating, Barnyardgrass [5]: 0
- Kochia plant response rating (kochia (Kochia scoparia); 31 g ai/ha): 0
- Kochia plant response rating (kochia (Kochia scoparia); 62 g ai/ha): 0
- Kochia plant response rating (kochia (Kochia scoparia); 125 g ai/ha): 0
- Kochia plant response rating (kochia (Kochia scoparia); 250 g ai/ha): 50
- Kochia plant response rating (kochia (Kochia scoparia); 500 g ai/ha): 75
- Nutsedge, Yellow plant response rating ([6]; 31 g ai/ha): 0
- Nutsedge, Yellow plant response rating ([6]; 62 g ai/ha): 20
- Nutsedge, Yellow plant response rating ([6]; 125 g ai/ha): 35
- Nutsedge, Yellow plant response rating ([6]; 250 g ai/ha): 0
- Nutsedge, Yellow plant response rating ([6]; 500 g ai/ha): 0

Compound: Cn1cc(C(=O)c2cccs2)c(-c2cc(Cl)cc(Cl)c2)n1 [Compound 17]
- Plant response rating (0 to 100), Barley ([7]; 62 g ai/ha): 0
- Plant response rating, Barley ([7]; 125 g ai/ha, scale 0 to 100): 0
- Plant response rating, Barley ([7]; 250 g ai/ha, scale 0 to 100): 0
- Plant response rating, Barley ([7]; 500 g ai/ha, scale 0 to 100): 0
- Plant response rating (0 to 100), Windgrass ([8]; 62 g ai/ha): 0
- Plant response rating (0 to 100), Windgrass ([8]; 125 g ai/ha): 0
- Plant response rating, Windgrass ([8]; 250 g ai/ha, scale 0 to 100): 0
- Plant response rating, Windgrass ([8]; 500 g ai/ha, scale 0 to 100): 0
- Plant response rating (0 to 100), Bermudagrass ([9]; 62 g ai/ha): 0
- Plant response rating, Bermudagrass ([9]; 125 g ai/ha, scale 0 to 100): 0
- Plant response rating, Bermudagrass ([9]; 250 g ai/ha, scale 0 to 100): 0
- Plant response rating, Bermudagrass ([9]; 500 g ai/ha, scale 0 to 100): 0
- Plant response rating (0 to 100), Bromegrass, Downy ([10]; 62 g ai/ha): 0
- Plant response rating, Bromegrass, Downy ([10]; 125 g ai/ha, scale 0 to 100): 0
- Plant response rating, Bromegrass, Downy ([10]; 250 g ai/ha, scale 0 to 100): 0
- Plant response rating, Bromegrass, Downy ([10]; 500 g ai/ha, scale 0 to 100): 0
- Plant response rating (0 to 100), Surinam Grass ([11]; 62 g ai/ha): 0
- Plant response rating (0 to 100), Surinam Grass ([11]; 125 g ai/ha): 0
- Plant response rating, Surinam Grass ([11]; 250 g ai/ha, scale 0 to 100): 5
- Plant response rating, Surinam Grass ([11]; 500 g ai/ha, scale 0 to 100): 5
- Plant response rating (0 to 100), Foxtail, Green ([12]; 62 g ai/ha): 0
- Plant response rating (0 to 100), Foxtail, Green ([12]; 125 g ai/ha): 0
- Plant response rating, Foxtail, Green ([12]; 250 g ai/ha, scale 0 to 100): 0
- Plant response rating, Foxtail, Green ([12]; 500 g ai/ha, scale 0 to 100): 0
- Plant response rating, Waterhemp_RES1 ([13]; 31 g ai/ha): 70
- Plant response rating, Waterhemp_RES1 ([13]; 62 g ai/ha): 70
- Plant response rating, Waterhemp_RES1 ([13]; 250 g ai/ha): 85
- Plant response rating, Waterhemp_RES1 ([13]; 500 g ai/ha): 85

Compound: CCn1cc(C(=O)c2ccccc2)c(-c2cc(Cl)cc(Cl)c2)n1 [Compound 31, [3-(3,5-dichlorophenyl)-1-ethyl-1H-pyrazol-4-yl]phenylmethanone]
- Johnsongrass plant response rating ([1]; 62 g ai/ha): 0
- Johnsongrass plant response rating ([1]; 125 g ai/ha): 0
- Johnsongrass plant response rating ([1]; 250 g ai/ha): 0
- Johnsongrass plant response rating ([1]; 500 g ai/ha): 0
- Crabgrass, Large plant response rating ([2]; 62 g ai/ha): 0
- Crabgrass, Large plant response rating ([2]; 125 g ai/ha): 0
- Crabgrass, Large plant response rating ([2]; 250 g ai/ha): 0
- Crabgrass, Large plant response rating ([2]; 500 g ai/ha): 0
- Plant response rating, Barley ([7]; 16 g ai/ha): 0
- Plant response rating (0 to 100), Barley ([7]; 31 g ai/ha): 0
- Plant response rating (0 to 100), Barley ([7]; 62 g ai/ha): 0
- Plant response rating (0 to 100), Barley ([7]; 125 g ai/ha): 0
- Plant response rating, Windgrass ([8]; 16 g ai/ha): 0
- Plant response rating (0 to 100), Windgrass ([8]; 62 g ai/ha): 0
- Plant response rating (0 to 100), Windgrass ([8]; 125 g ai/ha): 0
- Plant response rating, Bermudagrass ([9]; 16 g ai/ha): 0
- Plant response rating (0 to 100), Bermudagrass ([9]; 31 g ai/ha): 0
- Plant response rating (0 to 100), Bermudagrass ([9]; 62 g ai/ha): 0
- Plant response rating (0 to 100), Bermudagrass ([9]; 125 g ai/ha): 0
- Plant response rating, Bromegrass, Downy ([10]; 16 g ai/ha): 0
- Plant response rating (0 to 100), Bromegrass, Downy ([10]; 31 g ai/ha): 0
- Plant response rating (0 to 100), Bromegrass, Downy ([10]; 62 g ai/ha): 0
- Plant response rating (0 to 100), Bromegrass, Downy ([10]; 125 g ai/ha): 0
- Plant response rating, Surinam Grass ([11]; 16 g ai/ha): 5
- Plant response rating (0 to 100), Surinam Grass ([11]; 62 g ai/ha): 5
- Plant response rating (0 to 100), Surinam Grass ([11]; 125 g ai/ha): 5
- Plant response rating, Foxtail, Green ([12]; 16 g ai/ha): 0
- Plant response rating (0 to 100), Foxtail, Green ([12]; 31 g ai/ha): 0
- Plant response rating (0 to 100), Foxtail, Green ([12]; 62 g ai/ha): 0
- Plant response rating (0 to 100), Foxtail, Green ([12]; 125 g ai/ha): 0
- Kochia plant response rating (kochia (Kochia scoparia); 62 g ai/ha): 35
- Kochia plant response rating (kochia (Kochia scoparia); 125 g ai/ha): 25
- Kochia plant response rating (kochia (Kochia scoparia); 250 g ai/ha): 50
- Kochia plant response rating (kochia (Kochia scoparia); 500 g ai/ha): 70
- Nutsedge, Yellow plant response rating ([6]; 62 g ai/ha): 0
- Nutsedge, Yellow plant response rating ([6]; 125 g ai/ha): 0
- Nutsedge, Yellow plant response rating ([6]; 250 g ai/ha): 0
- Nutsedge, Yellow plant response rating ([6]; 500 g ai/ha): 0
